These results are taken from patent US8637508B2, “Heterocyclic derivatives and their use in the treatment of neurological disorders” (Novartis AG, priority 2011, dated 2014).

In one experiment the target is human BACE-2 (Homo sapiens (Human), UniProt Q9Y5Z0). The experiment can be described thus: Test 2: Inhibition of human BACE-2. The format is biochemical. An excerpt: Test 2: Inhibition of Human BACE-2
The next experiment has as its target human BACE-1 (Homo sapiens (Human), UniProt P56817). The experiment can be described thus: Test 1: Inhibition of human BACE-1.
Where [1] appears, read: mean IC50, recombinant BACE-2, acetate buffer pH 4.5, fluorescence-quenched peptide substrate, read-out: BACE-2 IC50.
Where [2] appears, read: read-out: BACE-1 IC50, mean IC50, recombinant BACE-1, acetate buffer pH 4.5, fluorescence-quenched peptide substrate.

Molecules are shown by their SMILES. Counter-ions that a name gives are not always drawn. Like-named read-outs stand apart in the source and are kept apart here.

Chain of human BACE-2 (Q9Y5Z0 63-473): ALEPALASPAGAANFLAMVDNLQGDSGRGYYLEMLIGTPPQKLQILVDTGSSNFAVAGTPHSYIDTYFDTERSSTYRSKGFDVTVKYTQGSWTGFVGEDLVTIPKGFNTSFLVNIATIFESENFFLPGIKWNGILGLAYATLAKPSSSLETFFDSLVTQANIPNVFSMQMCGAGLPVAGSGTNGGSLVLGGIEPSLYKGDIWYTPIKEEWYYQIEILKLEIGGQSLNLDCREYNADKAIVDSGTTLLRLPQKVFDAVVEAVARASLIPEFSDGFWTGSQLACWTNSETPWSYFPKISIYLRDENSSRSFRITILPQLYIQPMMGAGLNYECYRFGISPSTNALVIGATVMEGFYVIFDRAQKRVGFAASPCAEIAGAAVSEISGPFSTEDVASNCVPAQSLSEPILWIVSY
Chain of human BACE-1 (P56817 46-457): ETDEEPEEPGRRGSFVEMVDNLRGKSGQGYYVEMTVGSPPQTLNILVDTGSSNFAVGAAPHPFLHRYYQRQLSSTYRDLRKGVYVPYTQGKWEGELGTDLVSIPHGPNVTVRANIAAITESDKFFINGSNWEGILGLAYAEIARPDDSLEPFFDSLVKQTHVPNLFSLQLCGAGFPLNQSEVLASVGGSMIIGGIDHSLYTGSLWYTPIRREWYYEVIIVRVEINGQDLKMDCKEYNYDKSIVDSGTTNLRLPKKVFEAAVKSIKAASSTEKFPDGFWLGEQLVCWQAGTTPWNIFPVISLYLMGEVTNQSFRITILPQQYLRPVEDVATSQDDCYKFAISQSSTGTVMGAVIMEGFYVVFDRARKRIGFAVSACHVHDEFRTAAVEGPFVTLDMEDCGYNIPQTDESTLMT

Turning to `C[C@@]1(c2cccc(NC(=O)c3ccc(Br)cn3)n2)COCC(N)=N1` [Example 1, 5-Bromo-pyridine-2-carboxylic acid [6-((R)-5-amino-3-methyl-3,6-dihydro-2H-[1,4]-oxazin-3-yl)-pyridin-2-yl]-amide], the IC50 on human BACE-2 (setting [1]) turned out to be 260 nM; at human BACE-1 (setting [2]) it was 390 nM.

As for `C[C@@]1(c2cc(NC(=O)c3ncc(C#N)cc3Cl)ncc2F)CO[C@@](C)(C(F)(F)F)C(N)=N1` [Example 35, 3-Chloro-5-cyano-pyridine-2-carboxylic acid [4-((3R,6R)-5-amino-3,6-dimethyl-6-trifluoromethyl-3,6-dihydro-2H-[1,4]oxazin-3-yl)-5-fluoro-pyridin-2-yl]-amide], the IC50 at human BACE-2 (setting [1]) turned out to be 120 nM; on human BACE-1 (setting [2]) it was 150 nM.

Consider `C[C@@]1(c2nc(NC(=O)c3nc4ccn(CC(F)F)c4nc3N)ccc2F)CO[C@@](C)(C(F)(F)F)C(N)=N1` [Example 45, 3-Amino-5-(2,2-difluoro-ethyl)-5H-pyrrolo[2,3-b]pyrazine-2-carboxylic acid [6-((3R,6R)-5-amino-3,6-dimethyl-6-trifluoromethyl-3,6-dihydro-2H-[1,4]oxazin-3-yl)-5-fluoro-pyridin-2-yl]amide], for which the IC50 at human BACE-2 and against human BACE-1 was over 10000 nM each time.

Turning to `Cc1cc(C(N)=S)cnc1C(=O)Nc1cc(C2(CF)COCC(N)=N2)ccn1` (centres unmarked) [Example 15, 5-Fluoromethyl-5-{2-[(3-methyl-5-thiocarbamoyl-pyridine-2-carbonyl)-amino]-pyridin-4-yl}-5,6-dihydro-2H-[1,4]oxazin-3-yl-ammonium trifluoro-acetate], the IC50 against human BACE-2 and at human BACE-1 was over 10000 nM in each case.

As to `Cc1cc(OC(F)F)cnc1C(=O)Nc1ccc(F)c([C@]2(C)CO[C@@](C)(C(F)(F)F)C(N)=N2)n1` [Example 29, 5-Difluoromethoxy-3-methyl-pyridine-2-carboxylic acid [6-((3R,6R)-5-amino-3,6-dimethyl-6-trifluoromethyl-3,6-dihydro-2H-[1,4]oxazin-3-yl)-5-fluoro-pyridin-2-yl]amide], the IC50 worked out at 24 nM at human BACE-2 (setting [1]) and 26 nM at human BACE-1 (setting [2]).

`NC1=NC(CF)(c2cc(NC(=O)c3ccc(Br)cn3)cnc2Cl)COC1` (centres unmarked) [Example 18, 5-Bromo-pyridine-2-carboxylic acid [5-(5-amino-3-fluoromethyl-3,6-dihydro-2H-[1,4]oxazin-3-yl)-6-chloro-pyridin-3-yl]-amide hydrochloride]: the values for the IC50 at human BACE-2 (setting [1]) and on human BACE-1 (setting [2]) were 130 nM and 140 nM, respectively.

As for `C[C@@]1(c2cccc(NC(=O)c3ncc(C#N)cc3N)n2)CO[C@@](C)(C(F)(F)F)C(N)=N1` [Example 19, 3-Amino-5-cyano-pyridine-2-carboxylic acid [6-((3R,6R)-5-amino-3,6-dimethyl-6-trifluoromethyl-3,6-dihydro-2H-[1,4]oxazin-3-yl)-pyridin-2-yl]-amide], the results for the IC50 at human BACE-2 (setting [1]) and at human BACE-1 (setting [2]) were 82 nM and 43 nM, respectively.

Consider `CC1(c2cccc(NC(=O)c3ccc(Br)cn3)n2)COCC(N)=N1` (racemic) [Example 2, 5-Bromo-pyridine-2-carboxylic acid [6-(5-amino-3-methyl-3,6-dihydro-2H-[1,4]-oxazin-3-yl)-pyridin-2-yl]-amide], for which the IC50 on human BACE-2 (setting [1]) is 360 nM; at human BACE-1 (setting [2]) it was 790 nM.

For the compound `COc1cnc(C(=O)Nc2ccc(F)c([C@]3(C)CO[C@@](C)(C(F)(F)F)C(N)=N3)n2)c(C)c1` [Example 25, 5-Methoxy-3-methyl-pyridine-2-carboxylic acid [6-((3R,6R)-5-amino-3,6-dimethyl-6-trifluoromethyl-3,6-dihydro-2H-[1,4]oxazin-3-yl)-5-fluoro-pyridin-2-yl]amide], the IC50 at human BACE-2 (setting [1]) was 15 nM; at human BACE-1 (setting [2]), 93 nM.

On to `[2H]c1nc(C(=O)Nc2cccc(C3(CF)COCC(N)=N3)n2)c(C([2H])([2H])[2H])c([2H])c1Cl` (centres unmarked) [Example 6, 5-{6-[(4,6-Dideutero-5-chloro-3-trideuteromethyl-pyridine-2-carbonyl)-amino]-pyridin-2-yl}-5-fluoromethyl-5,6-dihydro-2H-[1,4]oxazin-3-yl-ammonium trifluoro acetate], for which the IC50 against human BACE-2 is 240 nM; on human BACE-1, 550 nM.

In the case of `C[C@@]1(c2nc(NC(=O)c3nc4ccn(CC(F)F)c4cc3Cl)ccc2F)CO[C@@](C)(C(F)(F)F)C(N)=N1` [Example 47, 6-Chloro-1-(2,2-difluoro-ethyl)-1H-pyrrolo[3,2-b]pyridine-5-carboxylic acid [6-((3R,6R)-5-amino-3,6-dimethyl-6-trifluoromethyl-3,6-dihydro-2H-[1,4]oxazin-3-yl)-5-fluoro-pyridin-2-yl]-amide], the IC50 at human BACE-2 (setting [1]) was 5400 nM; against human BACE-1, over 10000 nM.

Consider `COCCn1ccc2nc(C(=O)Nc3ccc(F)c([C@]4(C)CO[C@@](C)(C(F)(F)F)C(N)=N4)n3)c(Cl)cc21` [Example 48, 6-Chloro-1-(2-methoxy-ethyl)-1H-pyrrolo[3,2-b]pyridine-5-carboxylic acid [6-((3R,6R)-5-amino-3,6-dimethyl-6-trifluoromethyl-3,6-dihydro-2H-[1,4]oxazin-3-yl)-5-fluoro-pyridin-2-yl]-amide], for which the IC50 against human BACE-2 was over 10000 nM; at human BACE-1 (setting [2]) it was 7300 nM.

As for `N#Cc1cnc(C(=O)Nc2ccc(F)c([C@]3(C(F)F)COCC(N)=N3)n2)c(Cl)c1` [Example 40, 3-Chloro-5-cyano-pyridine-2-carboxylic acid [6-((R)-5-amino-3-difluoromethyl-3,6-dihydro-2H-[1,4]oxazin-3-yl)-5-fluoro-pyridin-2-yl]-amide], the IC50 is 170 nM on human BACE-2 (setting [1]) and 42 nM at human BACE-1 (setting [2]).

Take `C[C@@]1(c2cccc(NC(=O)c3ncc(Br)cc3Cl)n2)CO[C@@](C)(C(F)(F)F)C(N)=N1` [Example 22, 5-Bromo-3-chloro-pyridine-2-carboxylic acid [6-((3R,6R)-5-amino-3,6-dimethyl-6-trifluoromethyl-3,6-dihydro-2H-[1,4]oxazin-3-yl)-pyridin-2-yl]-amide]: the IC50 on human BACE-2 (setting [1]) came out at 5 nM; on human BACE-1 (setting [2]) it was 13 nM.

Regarding `Cc1cc(C#N)cnc1C(=O)Nc1ccc(F)c([C@]2(C(F)F)COCC(N)=N2)n1` [Example 38, 5-Cyano-3-methyl-pyridine-2-carboxylic acid [6-((R)-5-amino-3-difluoromethyl-3,6-dihydro-2H-[1,4]oxazin-3-yl)-5-fluoro-pyridin-2-yl]-amide], the values for the IC50 on human BACE-2 (setting [1]) and at human BACE-1 (setting [2]) were 160 nM and 33 nM, respectively.

Consider `Cc1cc(C#N)cnc1C(=O)Nc1ccc(F)c([C@@]2(C(F)F)COCC(N)=N2)n1` [Example 39, 5-Cyano-3-methyl-pyridine-2-carboxylic acid [6-((S)-5-amino-3-difluoromethyl-3,6-dihydro-2H-[1,4]oxazin-3-yl)-5-fluoro-pyridin-2-yl]-amide], for which the figures for the IC50 at human BACE-2 (setting [1]) and at human BACE-1 (setting [2]) were 6500 nM and 1500 nM, respectively.

In the case of `C[C@@]1(c2cc(NC(=O)c3ncc(OC(F)F)cc3Cl)ncc2F)CO[C@@](C)(C(F)(F)F)C(N)=N1` [Example 36, 3-Chloro-5-difluoromethoxy-pyridine-2-carboxylic acid [4-((3R,6R)-5-amino-3,6-dimethyl-6-trifluoromethyl-3,6-dihydro-2H-[1,4]oxazin-3-yl)-5-fluoro-pyridin-2-yl]-amide], the results for the IC50 at human BACE-2 (setting [1]) and at human BACE-1 (setting [2]) were 280 nM and 410 nM, respectively.

As for `Cc1cc(C#N)cnc1C(=O)Nc1cccc([C@]2(C)CO[C@@](C)(C(F)(F)F)C(N)=N2)n1` [Example 8, 5-Cyano-3-methyl-pyridine-2-carboxylic acid [6-((3R,6R)-5-amino-3,6-dimethyl-6-trifluoro-methyl-3,6-dihydro-2H-[1,4]oxazin-3-yl)-pyridin-2-yl]-amide], the figures for the IC50 at human BACE-2 (setting [1]) and at human BACE-1 (setting [2]) were 20 nM and 5 nM, respectively.

As to `C[C@@]1(c2cccc(NC(=O)c3ncc(C#N)cc3Cl)n2)CO[C@@](C)(C(F)(F)F)C(N)=N1` [Example 20, 3-Chloro-5-cyano-pyridine-2-carboxylic acid [6-((3R,6R)-5-amino-3,6-dimethyl-6-trifluoromethyl-3,6-dihydro-2H-[1,4]oxazin-3-yl)-pyridin-2-yl]-amide], the IC50 at human BACE-2 (setting [1]) was determined as 41 nM; on human BACE-1 (setting [2]), 10 nM.

Take `C[C@@]1(c2nc(NC(=O)c3nn(C(F)F)cc3Cl)ccc2F)CO[C@@](C)(C(F)(F)F)C(N)=N1` [Example 46, 4-Chloro-1-difluoromethyl-1H-pyrazole-3-carboxylic acid [6-((3R,6R)-5-amino-3,6-dimethyl-6-trifluoromethyl-3,6-dihydro-2H-[1,4]oxazin-3-yl)-5-fluoro-pyridin-2-yl]-amide]: the IC50 on human BACE-2 (setting [1]) was determined as 5 nM; at human BACE-1 (setting [2]), 10 nM.

Take `NC(=S)c1ccc(C(=O)Nc2cccc(C3(CF)COCC(N)=N3)n2)nc1` (centres unmarked) [Example 7, 5-{6-[(5-Thiocarbamoyl-pyridine-2-carbonyl)-amino]-pyridin-2-yl}-5-fluoromethyl-5,6-dihydro-2H-[1,4]oxazin-3-yl-ammonium trifluoro-acetate]: the IC50 at human BACE-2 (setting [1]) was determined as 8700 nM; on human BACE-1 (setting [2]), 2100 nM.

As for `NC1=NC(CF)(c2ccnc(NC(=O)c3ccc(Cl)cn3)c2)COC1` (centres unmarked) [Example 14, 5-{2-[(5-Chloro-pyridine-2-carbonyl)-amino]-pyridin-4-yl}-5-fluoromethyl-5,6-dihydro-2H-[1,4]oxazin-3-yl-ammonium trifluoro-acetate], the figures for the IC50 on human BACE-2 (setting [1]) and at human BACE-1 (setting [2]) were 4800 nM and 8100 nM, respectively.

By IC50 is commonly meant the midpoint of a concentration-inhibition curve.
